We go through eleven compounds from patent US6630135B1, “Use of sustained release antibiotic compositions in ophthalmic surgical procedures” (Alcon Laboratories, Inc., priority 1993, dated 2003).

Converted amounts (≈) assume the structure as drawn. Like-named read-outs stand apart in the source and are kept apart here.

For series [1], the system named is Pseudomonas aeruginosa (i.e., Strain 4N3422). Kind of series: Minimum inhibitory concentration against Pseudomonas aeruginosa Strain 4N3422. In kind it is cell-based. An excerpt: The concentration of antibiotic utilized in the compositions of the present invention will vary depending on the intended use of the compositions (i.e., sterilization of the surgical field or prevention of post-surgical infections), and the relative antimicrobial activity of the specific antibiotic selected. The antimicrobial activity of antibiotics is generally expressed as the minimum concentration required to inhibit the growth of a specified pathogen. The concentration is also referred to as the “minimum inhibitory concentration” or “MIC”. The term “MIC90” refers to the minimum concentration of antibiotic required to inhibit the growth of ninety percent (90%) of a population of multiple strains of a microorganism. The concentration of an antibiotic required to totally kill a specified population of bacteria or other pathogens is referred to as the “minimum bactericidal concentration” or “MBC”. The minimum inhibitory concentrations of some of the preferred antibiotics of the present invention, relative to a specific strain of Pseudomonas aeruginosa (i.e., Strain 4N3422), are presented in the following table: […]

For a further series, the system named is Staph. aureus. Kind of series: MIC90 against multiple strains of Staph. aureus. In kind it is cell-based. An excerpt:
(§1) The concentration of antibiotic utilized in the compositions of the present invention will vary depending on the intended use of the compositions (i.e., sterilization of the surgical field or prevention of post-surgical infections), and the relative antimicrobial activity of the specific antibiotic selected. The antimicrobial activity of antibiotics is generally expressed as the minimum concentration required to inhibit the growth of a specified pathogen. The concentration is also referred to as the “minimum inhibitory concentration” or “MIC”. The term “MIC90” refers to the minimum concentration of antibiotic required to inhibit the growth of ninety percent (90%) of a population of multiple strains of a microorganism. The concentration of an antibiotic required to totally kill a specified population of bacteria or other pathogens is referred to as the “minimum bactericidal concentration” or “MBC”. The activity of antibiotics against Pseudomonas aeruginosa is particularly important in the present invention, because ophthalmic infections involving Pseudomonas aeruginosa represent an extremely serious condition which may ultimately result in the loss of the affected eye.

For a further series, the system named is Staph. epidermidis. Briefly: MIC90 against Staph. epidermidis. In kind it is cell-based.
Description: as §1

Another series relates to Hemo. influenzae. Briefly: MIC90 against Hemo. influenzae. In kind it is cell-based.
Description: as §1

The next series deals with Strep. pneumoniae. Kind of series: MIC90 against Strep. pneumoniae. Type of series: cell-based.
Description: as §1

The next series deals with P. aeruginosa. Kind of series: MIC90 against multiple strains of P. aeruginosa. In kind it is cell-based.
Description: as §1

A short description of series [2]: Ocular tissue drug concentration after topical dosing of rabbit eyes (HPLC). Type of series: in vivo. To be noted: New Zealand albino, 30 microliters, normal eyes, after 30 minutes. As for the experimental part:
The following formulations were tested: The route of administration was topical. The rabbits received 30 microliters of either the gel or solution formulations in both eyes. At the end of the study, the aqueous humor and cornea were collected and assayed by high performance liquid chromatography to determine the amount of drug present.

The conditions of series [3]: humans, one hour after administration, cited from earlier work.
The conditions of series [4]: rabbits, subconjunctival injection; cited from earlier work.
Where [5] appears, read: Staphylococcus aureus, read-out: MIC 90.
Where [6] appears, read: Staphylococcus epidermidis, read-out: MIC 90.
Setting [7] is: Haemophilus influenzae, read-out: MIC 90.
Where [8] appears, read: Streptococcus pneumoniae, read-out: MIC 90.
Setting [9] is: Pseudomonas aeruginosa, read-out: MIC 90.

Turning to `NCC[C@H](O)C(=O)N[C@@H]1C[C@H](N)[C@@H](O[C@H]2O[C@H](CN)[C@@H](O)[C@H](O)[C@H]2O)[C@H](O)[C@H]1O[C@H]1O[C@H](CO)[C@@H](O)[C@H](N)[C@H]1O` [Amikacin], in [1] (read-out: MIC), the minimum inhibitory concentration (MIC) (usually the smallest concentration in the dilution series that meets the test's criterion for growth inhibition) stood at 8 µg/mL (≈ 13.7 µM).
Turning to `CO/N=C(\C(=O)N[C@@H]1C(=O)N2C(C(=O)O)=C(COC(C)=O)CS[C@H]12)c1csc(N)n1` [Cefotaxime], the minimal inhibitory concentration (MIC) in [1] (read-out: MIC) was determined as 32 µg/mL (≈ 70.3 µM).
Same read-out and setting: then `CO[C@@]1(NC(=O)Cc2cccs2)C(=O)N2C(C(=O)O)=C(COC(N)=O)CS[C@@H]21` [Cefoxitin], with above 32 µg/mL.
On the same count and under the same terms, then `CC(C)(O/N=C(\C(=O)N[C@@H]1C(=O)N2C(C(=O)[O-])=C(C[n+]3ccccc3)CS[C@H]12)c1csc(N)n1)C(=O)O` [Ceftazidime], with 1 µg/mL (≈ 1.83 µM).
Regarding `O=C(O)c1cn(C2CC2)c2cc(N3CCNCC3)c(F)cc2c1=O` [Ciprofloxacin], the minimal inhibitory concentration (MIC) in series [1] (read-out: MIC) is below 0.125 µg/mL. Moreover, the MIC90 in the series on Staph. aureus (setting [5]) is 0.5 µg/mL (≈ 1.51 µM); with Staph. epidermidis (setting [6]), 0.4 µg/mL (≈ 1.21 µM); with Hemo. influenzae (setting [7]) it was 0.015 µg/mL (≈ 0.0453 µM); with Strep. pneumoniae (setting [8]), 2 µg/mL (≈ 6.04 µM); in the series with P. aeruginosa (setting [9]) it was 0.5 µg/mL (≈ 1.51 µM). The concentration at 30 min in [2] (aqueous humor, read-out: drug levels in aqueous humor) came out at 280 ng/g; in series [2] (cornea, read-out: drug levels in cornea), 10600 ng/g. In addition, the “maximum aqueous humor concentration” value in series [3] (IV injection (200 mg)) is 0.16 µg/mL; in series [3] (oral dosage (1 g)), 0.33 µg/mL.
Consider `C[C@@H](O)[C@H]1C(=O)N2C(C(=O)O)=C(SCCN=CN)C[C@H]12` [Imipenem], for which the MIC in series [1] (read-out: MIC) worked out at 1 µg/mL (≈ 3.34 µM).
As to `CCn1cc(C(=O)O)c(=O)c2cc(F)c(N3CCNCC3)cc21` [Norfloxacin], the minimum inhibitory concentration (MIC) in series [1] (read-out: MIC) is below 0.5 µg/mL.
Turning to `CCN1CCN(C(=O)N[C@@H](C(=O)N[C@@H]2C(=O)N3[C@@H]2SC(C)(C)[C@@H]3C(=O)O)c2ccccc2)C(=O)C1=O` [Piperacillin], the MIC in [1] (read-out: MIC) is below 8 µg/mL.
As to `CC1(C)S[C@@H]2[C@H](NC(=O)[C@H](C(=O)O)c3ccsc3)C(=O)N2[C@H]1C(=O)O` [Ticarcillin], the minimal inhibitory concentration (MIC) in [1] (read-out: MIC) is 32 µg/mL (≈ 83.2 µM).
`NC[C@H]1O[C@H](O[C@H]2[C@H](O)[C@@H](O[C@H]3O[C@H](CO)[C@@H](O)[C@H](N)[C@H]3O)[C@H](N)C[C@@H]2N)[C@H](N)C[C@@H]1O` [Tobramycin]: the MIC in [1] (read-out: MIC) was above 8 µg/mL. Further, the MIC90 with Staph. aureus (setting [5]) worked out at 6.3 µg/mL (≈ 13.5 µM); in the series on Staph. epidermidis (setting [6]) it was 56 µg/mL (≈ 120 µM); with Hemo. influenzae (setting [7]) it was 13.4 µg/mL (≈ 28.7 µM); in the series on Strep. pneumoniae (setting [8]), 34.5 µg/mL (≈ 73.8 µM); with P. aeruginosa (setting [9]), 20 µg/mL (≈ 42.8 µM).
With Gentamicin, the minimum inhibitory concentration (MIC) in series [1] is above 8 µg/mL. In addition, the “MIC90” value in the series on Staph. aureus turned out to be 12.5 µg/mL; with Staph. epidermidis, 12.5 µg/mL; with Hemo. influenzae, 0.8 µg/mL; with Strep. pneumoniae, 50.0 µg/mL; with P. aeruginosa it was 8.0 µg/mL. Moreover, in [4], the “maximum concentration attained in the aqueous humor” value is 8.8 µg/g.
